Experiments:
Format in all cases: in vivo
[1] = tested on: Abutilon theophrasti; experiment: Post-emergence herbicidal efficacy at 320 g/ha, ABUTH; conditions: rated visually after about 3 weeks vs untreated controls, 100% = plants have died
From the text: (§1) Unwanted plants/weeds: • ABUTH: Abutilon theophrasti • ALOMY: Alopecurus myosuroides • AMARE: Amaranthus retroflexus • DIGSA: Digitaria sanguinalis • ECHCG: Echinochloa crus-galli • KCHSC: Kochia scoparia • LOLRI: Lolium rigidum • MATIN: Matricaria inodora • POAAN: Poa annua • POLCO: Polygonum convolvulus • SETVI: Setaria viridis • STEME: Stellaria media • VERPE: Veronica persica • VIOTR: Viola tricolor A. Post-Emergence Herbicidal Efficacy at 320 g/ha
(§2) Seeds of mono- and dicotyledonous weed plants were placed in plastic pots in sandy loam soil (doubly sown with in each case one species of mono- or dicotyledonous weed plants per pot), covered with soil and cultivated in a greenhouse under controlled growth conditions. 2 to 3 weeks after sowing, the test plants were treated at the one-leaf stage. The compounds of the invention, formulated in the form of wettable powders (WP) or as emulsion concentrates (EC), were applied to the green parts of the plants as aqueous suspension or emulsion with addition of 0.5% additive at a water application rate equivalent to 600 litres per hectare. After the test plants had been kept in the greenhouse under optimum growth conditions for about 3 weeks, the activity of the preparations was rated visually in comparison to untreated controls.
(§3) For example, 100% activity=the plants have died, 0% activity=like control plants.
(§4) Tables A1 to A10 below show the effects of selected compounds of the general formula (I) according to Table 1 on various harmful plants and at an application rate corresponding to 320 g/ha, which were obtained by the trial procedure specified above.

[2] = tested on: Amaranthus retroflexus; experiment: Post-emergence herbicidal efficacy at 320 g/ha, AMARE; conditions: rated visually after about 3 weeks vs untreated controls, 100% = plants have died
How it was run: (§5)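 One-leaf-stage weeds, sandy loam pots, greenhouse; foliar spray of WP/EC, 0.5% additive, 600 L/ha water; visual rating at ~3 wk, 0–100% vs untreated.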

[3] = tested on: Digitaria sanguinalis; experiment: Post-emergence herbicidal efficacy at 320 g/ha, DIGSA; conditions: rated visually after about 3 weeks vs untreated controls, 100% = plants have died
From the text: as §1, §2, §3, §4

[4] = tested on: Echinochloa crus-galli; experiment: Post-emergence herbicidal efficacy at 320 g/ha, ECHCG; conditions: rated visually after about 3 weeks vs untreated controls, 100% = plants have died
From the text: as §1, §2, §3, §4

[5] = tested on: Kochia scoparia; experiment: Post-emergence herbicidal efficacy at 320 g/ha, KCHSC; conditions: rated visually after about 3 weeks vs untreated controls, 100% = plants have died
How it was run: as §5

[6] = tested on: Poa annua; experiment: Post-emergence herbicidal efficacy at 320 g/ha, POAAN; conditions: rated visually after about 3 weeks vs untreated controls, 100% = plants have died
From the text: as §1, §2, §3, §4

[7] = tested on: Setaria viridis; experiment: Post-emergence herbicidal efficacy at 320 g/ha, SETVI; conditions: rated visually after about 3 weeks vs untreated controls, 100% = plants have died
From the text: as §1, §2, §3, §4

[8] = tested on: Stellaria media; experiment: Post-emergence herbicidal efficacy at 320 g/ha, STEME; conditions: rated visually after about 3 weeks vs untreated controls, 100% = plants have died
How it was run: as §5

[9] = tested on: Veronica persica; experiment: Post-emergence herbicidal efficacy at 320 g/ha, VERPE; conditions: rated visually after about 3 weeks vs untreated controls, 100% = plants have died
How it was run: as §5

[10] = tested on: Amaranthus retroflexus; experiment: Post-emergence herbicidal efficacy at 80 g/ha, AMARE; conditions: rated visually after about 3 weeks vs untreated controls, 100% = plants have died
From the text: as §1
(§6) Seeds of monocotyledonous and dicotyledonous weeds and crop plants were placed in sandy loam in plastic or organic planting pots, covered with soil and cultivated in a greenhouse under controlled growth conditions. 2 to 3 weeks after sowing, the test plants were treated at the one-leaf stage. The compounds of the invention, formulated in the form of wettable powders (WP) or as emulsion concentrates (EC), were then sprayed onto the green parts of the plants as aqueous suspension or emulsion with addition of 0.5% additive at a water application rate of 600 l/ha (converted). After the test plants had been kept in the greenhouse under optimum growth conditions for about 3 weeks, the activity of the preparations was rated visually in comparison to untreated controls. For example, 100% activity=the plants have died, 0% activity=like control plants.
(§7) Tables B1 to B11 below show the effects of selected compounds of the general formula (I) according to Table 1 on various harmful plants and an application rate corresponding to 80 g/ha, which were obtained by the experimental procedure mentioned above.

[11] = tested on: Kochia scoparia; experiment: Post-emergence herbicidal efficacy at 80 g/ha, KCHSC; conditions: rated visually after about 3 weeks vs untreated controls, 100% = plants have died
From the text: as §1, §6, §7

[12] = tested on: Veronica persica; experiment: Post-emergence herbicidal efficacy at 80 g/ha, VERPE; conditions: rated visually after about 3 weeks vs untreated controls, 100% = plants have died
From the text: as §1, §6, §7

[13] = tested on: Viola tricolor; experiment: Post-emergence herbicidal efficacy at 80 g/ha, VIOTR; conditions: rated visually after about 3 weeks vs untreated controls, 100% = plants have died
From the text: as §1, §6, §7

[14] = tested on: Abutilon theophrasti; experiment: Pre-emergence herbicide efficacy at 320 g/ha, ABUTH; conditions: scored visually after about 3 weeks vs untreated controls, 100% = plants have died
From the text: as §1
(§8) Seeds of mono- and dicotyledonous weed plants were placed in plastic pots in sandy loam soil (doubly sown with one species each of mono- or dicotyledonous weed plants per pot) and covered with soil. The compounds of the invention, formulated in the form of wettable powders (WP) or as emulsion concentrates (EC), were then applied to the surface of the covering soil as aqueous suspension or emulsion with addition of 0.5% additive at a water application rate of 600 litres per hectare (converted). After the treatment, the pots were placed in a greenhouse and kept under good growth conditions for the test plants. After about 3 weeks, the efficacy of the preparations was scored visually in comparison with untreated controls as percentages.
as §3
(§9) Tables C1 to C12 below show the effects of selected compounds of the general formula (I) according to Table 1 on various harmful plants and at an application rate corresponding to 320 g/ha, which were obtained by the trial procedure specified above.

[15] = tested on: Amaranthus retroflexus; experiment: Pre-emergence herbicide efficacy at 320 g/ha, AMARE; conditions: scored visually after about 3 weeks vs untreated controls, 100% = plants have died
How it was run: (§10)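 Compound formulated as wettable powder or emulsion concentrate is applied onto covered, sown sandy loam soil with 0.5% additive. Plants grow under greenhouse conditions, and after roughly 3 weeks weed control is rated by eye as a percentage relative to untreated pots.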

[16] = tested on: Digitaria sanguinalis; experiment: Pre-emergence herbicide efficacy at 320 g/ha, DIGSA; conditions: scored visually after about 3 weeks vs untreated controls, 100% = plants have died
From the text: as §1, §8, §3, §9

[17] = tested on: Echinochloa crus-galli; experiment: Pre-emergence herbicide efficacy at 320 g/ha, ECHCG; conditions: scored visually after about 3 weeks vs untreated controls, 100% = plants have died
From the text: as §1, §8, §3, §9

[18] = tested on: Kochia scoparia; experiment: Pre-emergence herbicide efficacy at 320 g/ha, KCHSC; conditions: scored visually after about 3 weeks vs untreated controls, 100% = plants have died
From the text: as §1, §8, §3, §9

[19] = tested on: Matricaria inodora; experiment: Pre-emergence herbicide efficacy at 320 g/ha, MATIN; conditions: scored visually after about 3 weeks vs untreated controls, 100% = plants have died
From the text: as §1, §8, §3, §9

[20] = tested on: Poa annua; experiment: Pre-emergence herbicide efficacy at 320 g/ha, POAAN; conditions: scored visually after about 3 weeks vs untreated controls, 100% = plants have died
From the text: as §1, §8, §3, §9

[21] = tested on: Setaria viridis; experiment: Pre-emergence herbicide efficacy at 320 g/ha, SETVI; conditions: scored visually after about 3 weeks vs untreated controls, 100% = plants have died
How it was run: as §10

[22] = tested on: Stellaria media; experiment: Pre-emergence herbicide efficacy at 320 g/ha, STEME; conditions: scored visually after about 3 weeks vs untreated controls, 100% = plants have died
From the text: as §1, §8, §3, §9

[23] = tested on: Veronica persica; experiment: Pre-emergence herbicide efficacy at 320 g/ha, VERPE; conditions: scored visually after about 3 weeks vs untreated controls, 100% = plants have died
From the text: as §1, §8, §3, §9

[24] = tested on: Abutilon theophrasti; experiment: Pre-emergence herbicide efficacy at 80 g/ha, ABUTH; conditions: scored visually after about 3 weeks vs untreated controls, 100% = plants have died
From the text: as §1
(§11) Seeds of monocotyledonous and dicotyledonous weed plants and crop plants were placed in plastic or organic planting pots and covered with soil. The compounds of the invention, formulated in the form of wettable powders (WP) or as emulsion concentrates (EC), were then applied to the surface of the covering soil as aqueous suspension or emulsion with addition of 0.5% additive at a water application rate equivalent to 600 l/ha. After the treatment, the pots were placed in a greenhouse and kept under good growth conditions for the test plants. After about 3 weeks, the efficacy of the preparations was scored visually in comparison with untreated controls as percentages. For example, 100% activity=the plants have died, 0% activity=like control plants.
(§12) Tables D1 to D12 below show the effects of selected compounds of the general formula (I) according to Table 1 on various harmful plants and an application rate corresponding to 80 g/ha, which were obtained by the experimental procedure mentioned above.

[25] = tested on: Amaranthus retroflexus; experiment: Pre-emergence herbicide efficacy at 80 g/ha, AMARE; conditions: scored visually after about 3 weeks vs untreated controls, 100% = plants have died
From the text: as §1, §11, §12

[26] = tested on: Digitaria sanguinalis; experiment: Pre-emergence herbicide efficacy at 80 g/ha, DIGSA; conditions: scored visually after about 3 weeks vs untreated controls, 100% = plants have died
From the text: as §1, §11, §12

[27] = tested on: Echinochloa crus-galli; experiment: Pre-emergence herbicide efficacy at 80 g/ha, ECHCG; conditions: scored visually after about 3 weeks vs untreated controls, 100% = plants have died
From the text: as §1, §11, §12

[28] = tested on: Kochia scoparia; experiment: Pre-emergence herbicide efficacy at 80 g/ha, KCHSC; conditions: scored visually after about 3 weeks vs untreated controls, 100% = plants have died
From the text: as §1, §11, §12

[29] = tested on: Matricaria inodora; experiment: Pre-emergence herbicide efficacy at 80 g/ha, MATIN; conditions: scored visually after about 3 weeks vs untreated controls, 100% = plants have died
From the text: as §1, §11, §12

[30] = tested on: Polygonum convolvulus; experiment: Pre-emergence herbicide efficacy at 80 g/ha, POLCO; conditions: scored visually after about 3 weeks vs untreated controls, 100% = plants have died
From the text: as §1, §11, §12

[31] = tested on: Setaria viridis; experiment: Pre-emergence herbicide efficacy at 80 g/ha, SETVI
From the text: as §1, §11, §12

[32] = tested on: Veronica persica; experiment: Pre-emergence herbicide efficacy at 80 g/ha, VERPE
From the text: as §1, §11, §12

[33] = tested on: Viola tricolor; experiment: Pre-emergence herbicide efficacy at 80 g/ha, VIOTR
From the text: as §1, §11, §12

For Cc1cnn(-c2c(C#N)cccc2Nc2ncc(Cl)cn2)c1 [Example 1-66], the “Post-emergence efficacy at 320 g/ha against ABUTH in %” value [1] was 100%, the “Post-emergence efficacy at 320 g/ha against AMARE in %” value [2] was 100% and the “Post-emergence efficacy at 320 g/ha against DIGSA in %” value [3] was 90%. For the same compound, the “Post-emergence efficacy at 320 g/ha against ECHCG in %” value [4] was 100%, the “Post-emergence efficacy at 320 g/ha against KCHSC in %” value [5] was 100% and the “Post-emergence efficacy at 320 g/ha against POAAN in %” value [6] was 100%. For the same compound, the “Post-emergence efficacy at 320 g/ha against SETVI in %” value [7] was 90%, the “Post-emergence efficacy at 320 g/ha against STEME in %” value [8] was 100% and the “Post-emergence efficacy at 320 g/ha against VERPE in %” value [9] was 100%. For the same compound, the “Post-emergence efficacy at 80 g/ha against AMARE in %” value [10] was 100%, the “Post-emergence efficacy at 80 g/ha against KCHSC in %” value [11] was 80% and the “Post-emergence efficacy at 80 g/ha against VERPE in %” value [12] was 90%. The “Post-emergence efficacy at 80 g/ha against VIOTR in %” value [13] was 90%, the “Pre-emergence efficacy at 320 g/ha against ABUTH in %” value [14] was 100% and the “Pre-emergence efficacy at 320 g/ha against AMARE in %” value [15] was 100%. For the same compound, the “Pre-emergence efficacy at 320 g/ha against DIGSA in %” value [16] was 100%, the “Pre-emergence efficacy at 320 g/ha against ECHCG in %” value [17] was 100% and the “Pre-emergence efficacy at 320 g/ha against KCHSC in %” value [18] was 100%. For the same compound, the “Pre-emergence efficacy at 320 g/ha against MATIN in %” value [19] was 90%, the “Pre-emergence efficacy at 320 g/ha against POAAN in %” value [20] was 100% and the “Pre-emergence efficacy at 320 g/ha against SETVI in %” value [21] was 100%. The “Pre-emergence efficacy at 320 g/ha against STEME in %” value [22] was 100%, the “Pre-emergence efficacy at 320 g/ha against VERPE in %” value [23] was 100% and the “Pre-emergence efficacy at 80 g/ha against ABUTH in %” value [24] was 80%. The “Pre-emergence efficacy at 80 g/ha against AMARE in %” value [25] was 100%, the “Pre-emergence efficacy at 80 g/ha against DIGSA in %” value [26] was 100% and the “Pre-emergence efficacy at 80 g/ha against ECHCG in %” value [27] was 90%. The “Pre-emergence efficacy at 80 g/ha against KCHSC in %” value [28] was 100%, the “Pre-emergence efficacy at 80 g/ha against MATIN in %” value [29] was 100% and the “Pre-emergence efficacy at 80 g/ha against POLCO in %” value [30] was 80%. The “Pre-emergence efficacy against SETVI” value [31] was 90%, the “Pre-emergence efficacy against VERPE” value [32] was 100% and the “Pre-emergence efficacy against VIOTR” value [33] was 100%.
